Experiment [1] has as its target T1, AChE from electric eel (Electrophorus electricus, UniProt O42275).
T1 construct: Acetylcholinesterase was obtained from electric eel (Electrophorus electricus L.); from tissue; host or cells: electric eel (Electrophorus electricus L.)
The experiment in a line: AChE inhibition, modified Ellman's method. In kind it is biochemical, Electrophorus electricus L. The source says:
(§1) The ability of the tested compounds to inhibit AChE from electric eel (Electrophorus electricus L.) and BChE from equine serum was screened in vitro using modified Ellman’s method for the evaluation of cholinesterase activity. […] […]. These two standards were chosen due to their different structures. […]. The choice of these drugs with different mechanism of action can provide relevant results. All tested compounds expressed a good inhibitory activity with IC50s in low micromolar values.
(§2) The IC50 values were determined using the spectrophotometric Ellman’s method, which is a simple, rapid and direct method to determine the SH and -S-S- group content in proteins. This method is widely used for cholinesterase activity evaluation and screening of the efficiency of cholinesterase inhibitors. Cholinesterase activity is measured indirectly by quantifying the concentration of 5-thio-2-nitrobenzoic acid (TNB) ion formed in the reaction between the thiol reagent 5,5'-dithiobis-2-nitrobenzoic acid (DTNB) and thiocholine, a product of substrate hydrolysis by cholinesterase (i.e., acetylthiocholine, ATCh). All the tested compounds were dissolved in dimethyl sulfoxide (concentration 0.01 M) and then diluted in demineralised water (concentration 0.001 M and 0.0001 M). The Ellman’s method is slightly modified according to Zdrazilova et al.. Acetylcholinesterase was obtained from electric eel (Electrophorus electricus L.) and butyrylcholinesterase from equine serum.
A general note: DTNB colorimetry detects thiols as they appear.

Experiment [2] addresses T2, BChE from equine serum (Equus caballus, UniProt P81908).
T2 construct: butyrylcholinesterase from equine serum; from tissue; host or cells: equine serum
The experiment in a line: BChE inhibition, modified Ellman's method. Type of experiment: biochemical.
From the text: as §1, §2

The subject of experiment [3] is M. kansasii My 235/80. Nature of the experiment: microbe, parasite or virus in culture. Particulars: for MIC: Mycobacterium kansasii, 37 °C; for MICs for M. kansasii 235/80: all time points. In kind it is cell-based, Mycobacterium kansasii.
Experiment [4] deals with nontuberculous mycobacteria (M. avium and M. kansasii). Nature of the experiment: microbe, parasite or virus in culture. In kind it is cell-based. Particulars: Mycobacterium avium, M. avium and M. kansasii strains; read-out: MIC values against nontuberculous mycobacteria.
Experiment [5] relates to M. avium My 330/88. Nature of the experiment: microbe, parasite or virus in culture. Conditions: for MIC: Mycobacterium avium, 37 °C; for MIC values against M. avium: all MIC values (14 and 21 d). In kind it is cell-based, Mycobacterium avium.
Experiment [6] concerns M. kansasii 6509/96 (clinically isolated). Nature of the experiment: microbe, parasite or virus in culture. Type of experiment: cell-based. Conditions: Mycobacterium kansasii, 37 °C.
The subject of experiment [7] is Mycobacterium tuberculosis My 331/88 (H37Rv). The experiment in a line: microbe, parasite or virus in culture. Type of experiment: cell-based.
[8] abbreviates: MY235/80, 168 h, 7 d, read-out: MIC M. kansasii 235/80 7 d.
Where [9] appears, read: MY235/80, 336 h, 14 d, read-out: MIC M. kansasii 235/80 14 d.
The mark [10] stands for this setting: MY235/80, 504 h, 21 d, read-out: MIC M. kansasii 235/80 21 d.
Where [11] appears, read: MY330/88, 336 h, 14 d, read-out: MIC M. avium 330/88 14 d.
Setting [12] is: MY330/88, 504 h, 21 d, read-out: MIC M. avium 330/88 21 d.
Where [13] appears, read: 168 h, 7 d, read-out: MIC M. kansasii 6509/96 7 d.
The mark [14] stands for this setting: 336 h, 14 d, read-out: MIC M. kansasii 6509/96 14 d.
Where [15] appears, read: 504 h, 21 d, read-out: MIC M. kansasii 6509/96 21 d.
[16] abbreviates: 336 h, 14 d, 37 °C, read-out: MIC Mtb 331/88 (H37Rv) 14 d.
The mark [17] stands for this setting: 504 h, 21 d, 37 °C, read-out: MIC Mtb 331/88 (H37Rv) 21 d.

The structures appear in SMILES notation. Converted amounts (≈) assume the structure as drawn. Like-named read-outs stand apart in the source and are kept apart here.

T2 sequence (P81908 whole entry): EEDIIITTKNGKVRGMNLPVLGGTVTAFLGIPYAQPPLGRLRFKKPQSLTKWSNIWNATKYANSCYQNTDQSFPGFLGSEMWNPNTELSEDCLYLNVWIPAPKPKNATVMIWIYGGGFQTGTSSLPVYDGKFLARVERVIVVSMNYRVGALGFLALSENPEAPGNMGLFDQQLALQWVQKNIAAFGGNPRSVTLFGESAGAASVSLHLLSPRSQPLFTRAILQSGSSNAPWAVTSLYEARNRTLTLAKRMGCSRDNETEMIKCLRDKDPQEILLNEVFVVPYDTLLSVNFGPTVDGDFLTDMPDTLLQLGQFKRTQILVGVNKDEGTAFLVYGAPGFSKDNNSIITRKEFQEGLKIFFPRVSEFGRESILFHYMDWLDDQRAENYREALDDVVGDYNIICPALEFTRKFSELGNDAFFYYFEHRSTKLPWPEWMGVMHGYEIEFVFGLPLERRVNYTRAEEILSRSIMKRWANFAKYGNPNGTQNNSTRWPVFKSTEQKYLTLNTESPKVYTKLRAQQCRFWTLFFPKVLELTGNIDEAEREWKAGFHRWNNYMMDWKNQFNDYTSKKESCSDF
T1 sequence (O42275 24-633): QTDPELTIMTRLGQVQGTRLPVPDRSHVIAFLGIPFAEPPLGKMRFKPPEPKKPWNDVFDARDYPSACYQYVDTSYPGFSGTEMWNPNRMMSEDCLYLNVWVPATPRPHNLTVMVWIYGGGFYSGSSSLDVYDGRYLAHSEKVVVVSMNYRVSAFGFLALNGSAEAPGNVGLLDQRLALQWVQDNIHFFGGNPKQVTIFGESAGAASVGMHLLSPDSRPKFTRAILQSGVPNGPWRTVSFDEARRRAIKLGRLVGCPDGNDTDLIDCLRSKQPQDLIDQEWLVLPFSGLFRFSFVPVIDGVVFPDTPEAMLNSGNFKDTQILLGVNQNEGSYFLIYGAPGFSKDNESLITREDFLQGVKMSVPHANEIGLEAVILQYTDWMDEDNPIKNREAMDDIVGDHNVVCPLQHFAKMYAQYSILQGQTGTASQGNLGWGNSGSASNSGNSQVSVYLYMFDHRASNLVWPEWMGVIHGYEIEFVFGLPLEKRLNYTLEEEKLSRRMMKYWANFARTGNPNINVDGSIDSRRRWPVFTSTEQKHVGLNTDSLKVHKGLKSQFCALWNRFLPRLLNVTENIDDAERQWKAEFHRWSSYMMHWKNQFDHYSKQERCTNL

Consider `CCOP(=S)(OCC)Oc1cc(Cl)ccc1C(=O)Nc1ccc(C(F)(F)F)cc1` [1zz, O-(5-Chloro-2-{[4-(trifluoromethyl)phenyl]carbamoyl}phenyl) O,O-diethyl phosphorothioate], for which the half-inhibitory concentration (IC50) came to 9.16 ± 0.17 µM in experiment [1] and 18.3 ± 1 µM in experiment [2]. For the same compound, the MIC was 16 µM (≈ 7.49 µg/mL) in experiment [3] (setting [8]); 16 µM (≈ 7.49 µg/mL) in experiment [3] (setting [9]); 16 µM (≈ 7.49 µg/mL) in experiment [3] (setting [10]); no less than 16 µM in experiment [4]; 62.5 µM (≈ 29.2 µg/mL) in experiment [5] (setting [11]); 62.5 µM (≈ 29.2 µg/mL) in experiment [5] (setting [12]). For the same compound, the MIC in experiment [6] (setting [13]) was determined as 16 µM (≈ 7.49 µg/mL); in experiment [6] (setting [14]), 32 µM (≈ 15 µg/mL); in experiment [6] (setting [15]), 32 µM (≈ 15 µg/mL); in experiment [7] (setting [16]) it was 8 µM (≈ 3.74 µg/mL); in experiment [7] (setting [17]) it was 16 µM (≈ 7.49 µg/mL). In addition, the “MICs for M. kansasii 235/80” value in experiment [3] was no more than 250 µM. The “MIC values against M. avium” value in experiment [5] was no more than 250 µM.

As for `CCOP(=S)(OCC)Oc1ccc(Br)cc1C(=O)Nc1ccc(C(F)(F)F)cc1` [1i, O-(4-Bromo-2-{[4-(trifluoromethyl)phenyl]carbamoyl}phenyl) O,O-diethyl phosphorothioate], the values for the IC50 in experiment [1] and in experiment [2] were 11.2 ± 0.02 µM and 20.2 ± 1.6 µM, respectively. Also, the MIC in experiment [3] (setting [8]) is 32 µM (≈ 16.4 µg/mL); in experiment [3] (setting [9]), 62.5 µM (≈ 32 µg/mL); in experiment [3] (setting [10]), 125 µM (≈ 64 µg/mL); in experiment [5] (setting [11]), 125 µM (≈ 64 µg/mL); in experiment [5] (setting [12]), 125 µM (≈ 64 µg/mL); in experiment [6] (setting [13]), 32 µM (≈ 16.4 µg/mL). In addition, the MIC is 62.5 µM (≈ 32 µg/mL) in experiment [6] (setting [14]); 125 µM (≈ 64 µg/mL) in experiment [6] (setting [15]); 8 µM (≈ 4.1 µg/mL) in experiment [7] (setting [16]); 8 µM (≈ 4.1 µg/mL) in experiment [7] (setting [17]); 8 µM (≈ 4.1 µg/mL) in experiment [7] (read-out: MIC against Mtb). Also, the “MICs for M. kansasii 235/80” value in experiment [3] is no more than 250 µM. For the same compound, in experiment [5], the “MIC values against M. avium” value is listed as no more than 250 µM.

`CCOP(=S)(OCC)Oc1ccc(Br)cc1C(=O)Nc1ccc(Cl)cc1` [1b, O-{4-Bromo-2-[(4-chlorophenyl)carbamoyl]phenyl} O,O-diethyl phosphorothioate]: the figures for the concentration for half-maximal inhibition (IC50) in experiment [1] and in experiment [2] were 12.9 ± 0.1 µM and 13.5 ± 0.9 µM, respectively. The MIC in experiment [3] (setting [8]) is 125 µM (≈ 59.8 µg/mL); in experiment [3] (setting [9]) it was 500 µM (≈ 239 µg/mL); in experiment [3] (setting [10]), 500 µM (≈ 239 µg/mL); in experiment [5] (setting [11]) it was 500 µM (≈ 239 µg/mL); in experiment [5] (setting [12]) it was 500 µM (≈ 239 µg/mL); in experiment [6] (setting [13]) it was 125 µM (≈ 59.8 µg/mL). In addition, the MIC came out at 500 µM (≈ 239 µg/mL) in experiment [6] (setting [14]), 500 µM (≈ 239 µg/mL) in experiment [6] (setting [15]), 16 µM (≈ 7.66 µg/mL) in experiment [7] (setting [16]) and 16 µM (≈ 7.66 µg/mL) in experiment [7] (setting [17]).

On to `CCOP(=S)(OCC)Oc1ccc(Cl)cc1C(=O)Nc1cccc(Cl)c1` [1j, O-{4-Chloro-2-[(3-chlorophenyl)carbamoyl]phenyl} O,O-diethyl phosphorothioate], for which the concentration for half-maximal inhibition (IC50) is 9.97 ± 0.24 µM in experiment [1] and 14.8 ± 0.15 µM in experiment [2]. Also, the MIC is 250 µM (≈ 109 µg/mL) in experiment [3] (setting [8]); 250 µM (≈ 109 µg/mL) in experiment [3] (setting [9]); 500 µM (≈ 217 µg/mL) in experiment [3] (setting [10]); greater than 500 µM in experiment [5] (setting [11]); greater than 500 µM in experiment [5] (setting [12]); 250 µM (≈ 109 µg/mL) in experiment [6] (setting [13]). Further, the MIC was 500 µM (≈ 217 µg/mL) in experiment [6] (setting [14]), 500 µM (≈ 217 µg/mL) in experiment [6] (setting [15]), 32 µM (≈ 13.9 µg/mL) in experiment [7] (setting [16]) and 62.5 µM (≈ 27.1 µg/mL) in experiment [7] (setting [17]).

Regarding `CCOP(=S)(OCC)Oc1ccc(Cl)cc1C(=O)Nc1cccc(F)c1` [1o, O-{4-Chloro-2-[(3-fluorophenyl)carbamoyl]phenyl} O,O-diethyl phosphorothioate], the IC50 in experiment [1] was found to be 9.94 ± 0.2 µM; in experiment [2], 11.8 ± 0.6 µM. Moreover, the MIC in experiment [3] (setting [8]) was 250 µM (≈ 104 µg/mL); in experiment [3] (setting [9]) it was 500 µM (≈ 209 µg/mL); in experiment [3] (setting [10]), greater than 500 µM; in experiment [5] (setting [11]) it was 500 µM (≈ 209 µg/mL); in experiment [5] (setting [12]), 500 µM (≈ 209 µg/mL); in experiment [6] (setting [13]), 250 µM (≈ 104 µg/mL). For the same compound, the MIC in experiment [6] (setting [14]) was determined as 500 µM (≈ 209 µg/mL); in experiment [6] (setting [15]) it was 500 µM (≈ 209 µg/mL); in experiment [7] (setting [16]), 32 µM (≈ 13.4 µg/mL); in experiment [7] (setting [17]), 32 µM (≈ 13.4 µg/mL).

`CCOP(=S)(OCC)Oc1ccc(Br)cc1C(=O)Nc1cccc(Br)c1` [1d]: the results for the IC50 in experiment [1] and in experiment [2] were 11.3 ± 0.05 µM and 20 ± 0.2 µM, respectively. In addition, the MIC in experiment [3] (setting [8]), in experiment [3] (setting [9]), in experiment [3] (setting [10]), in experiment [5] (setting [11]), in experiment [5] (setting [12]) and in experiment [6] (setting [13]) was 125 µM (≈ 65.4 µg/mL) each time. Besides, the MIC in experiment [6] (setting [14]) came out at 125 µM (≈ 65.4 µg/mL); in experiment [6] (setting [15]), 125 µM (≈ 65.4 µg/mL); in experiment [7] (setting [16]), 16 µM (≈ 8.37 µg/mL); in experiment [7] (setting [17]) it was 16 µM (≈ 8.37 µg/mL). In experiment [3], the “MICs for M. kansasii 235/80” value is on record as no more than 250 µM. Besides, the “MIC values against M. avium” value in experiment [5] is no more than 250 µM.

As to `CCOP(=S)(OCC)Oc1ccc(Br)cc1C(=O)Nc1ccc(Br)cc1` [1e, O-{4-Bromo-2-[(4-bromophenyl)carbamoyl]phenyl} O,O-diethyl phosphorothioate], the results for the IC50 in experiment [1] and in experiment [2] were 10.7 µM and 18.9 ± 0.2 µM, respectively. Moreover, the MIC in experiment [3] (setting [8]) amounted to 125 µM (≈ 65.4 µg/mL); in experiment [3] (setting [9]) it was 250 µM (≈ 131 µg/mL); in experiment [3] (setting [10]) it was 250 µM (≈ 131 µg/mL); in experiment [5] (setting [11]), 250 µM (≈ 131 µg/mL); in experiment [5] (setting [12]), 250 µM (≈ 131 µg/mL); in experiment [6] (setting [13]), 62.5 µM (≈ 32.7 µg/mL). In addition, the MIC in experiment [6] (setting [14]) came to 250 µM (≈ 131 µg/mL); in experiment [6] (setting [15]) it was 250 µM (≈ 131 µg/mL); in experiment [7] (setting [16]) it was 8 µM (≈ 4.19 µg/mL); in experiment [7] (setting [17]), 16 µM (≈ 8.37 µg/mL). In experiment [3], the “MICs for M. kansasii 235/80” value is on record as no more than 250 µM. The “MIC values against M. avium” value in experiment [5] was no more than 250 µM.

By IC50 is commonly meant the concentration that inhibits the measured activity by half. Low readings indicate inhibition by little substance, high ones a need for much substance.
